Here are results for eleven compounds from patent US20210392882A1, “METHODS AND COMPOSITIONS FOR IMPROVED INSECT REPELLENCY” (Board of Trustees of Michigan State University, priority 2020, published 2021).

One experiment concerns Ae. aegypti mosquitoes. The experiment in a line: Hand-in-cage spatial repellency assay. The class given is in vivo, Aedes aegypti. As to conditions: for repellency in AaOr31−/− mosquitoes compared to wild-type mosquitoes: ROCK wild-type; for effect of (E)-β-farnesene on repellency of the compound: EBF 4 ppm, P-I 1000 ppm, P-II 1000 ppm, (−)-borneol 100 ppm; for repellency in pyrethrum/pyrethroid resistant KDR:ROCK mosquitoes compared to ROCK: FIG. 4G. From the text:
The hand-in-cage assay employed was similar to the hand-in-glove assay described by Boyle et al. (bioRxiv, 060178 (2016)). The setup for the hand-in-cage assay includes a 30 cm×30 cm×30 cm mosquito cage (BioQuip, Rancho Dominguea, Calif.), with a mounted digital camera and a human hand in a modified glove with a screened window. The digital camera (e-con Systems Inc, San Jose, Calif., model: e-CAM51A) for video recording is mounted on the cage top and connected to a laptop computer. A nitrile rubber glove (Ansell Protective Products, Coshoton, Ohio, part number: 37-155) was cut on the back side of the glove to create a window (6 cm×5 cm) (FIG. 1A). A piece of magnetic frame (slightly larger than the dimension of the window) was glued onto the cut window which was used as a base for stacking more magnetic window frames (FIG. 1A; further explained below). One piece of test compound-treated polyester netting (Shason Textile Inc., part number: WS-B532-111, white; slightly larger than the dimension of the window) was placed on this fixed magnetic frame, which was ˜3.0 mm above the glove. The second piece of the netting was untreated and placed ˜6.0 mm above the treated net using a stack of four magnetic frames. The stacked magnetic frames were further secured with a binder clip. The stacking creates sufficient space between the treated net and the untreated net so that mosquitoes that land on the open window were not able to contact treated net, or to contact and pierce skin of a hand in the glove. The hand makes no contact with the treated net.
The assay was run in a room with humidity between around 50% and temperature between 27° C. to 30° C. Twenty-four hours before an assay, four to nine days-old females (about 40, mated, non-blood fed) were transferred into a mosquito cage. The cage was kept in an incubator where mosquitoes were provided only with water in a cotton ball placed on the top of the cage. Immediately before the assay, one researcher treated pieces of netting with 500 μl test compound dissolved in acetone in a glass Petri dish in an adjacent room. Acetone served a control. After letting acetone evaporate (˜7 min), the researcher assembled and put on a modified glove. In the meantime, a second researcher or a lab assistant transferred the prepared cage from the incubator to a bench in the assay room. Both personnel avoided use of any hand lotions and cosmetic products before an assay and wore white lab coats and gloves during the assay. The hand with the modified glove was introduced into the cage to initiate the assay. Mosquitoes landing on the test window was recorded by the digital camera for five minutes. The number of mosquitoes landing during the second to fifth minutes was counted and recorded. For each cage, solvent (acetone) control was tested first and then followed with a treatment. Data from any cage that gave a low landing number in a control trial were discarded. The time interval of assays between control and treatment was at least 1.5 hours, allowing the mosquitoes to fully recover and residual vapors from experiments to be ventilated out of the room. Percentage repellency was determined for each cage using the following equation:
Percentage repellency=[1−(cumulative number of mosquitoes landed on the window of treatment/cumulative number of mosquitoes landed on the window of solvent treatment)]×100).
The spatial repellency of pyrethrum was examined using a hand-in-cage assay (Ogoma et al. PLoS neglected tropical diseases 11, e0005455 (2017)). In this behavioral assay, mosquitoes were attracted to a human hand in a modified glove (FIG. 1A) with a screened window on the back of the glove. The mosquitoes landed on a piece of control mesh secured on the top of the window. Between the control mesh and the hand is another mesh treated with a test compound, with which mosquitoes cannot make direct contact (FIG. 1A).

Experiment [1] concerns sbt-1 sensilla (sbt-1A and sbt-1B neurons). The experiment in a line: Single sensillum recording (SSR) of antennal sbt-1 sensilla. It is filed as cell-based, Aedes aegypti. Conditions: for response of sbt-1A neurons in AaOr31−/− mosquitoes: AaOr31 knockout vs ROCK, 10^−2 dilution, FIG. 3A; for response of sbt-1A neuron / response of sbt-1B neuron: wild-type ROCK; for response of sbt-1A neuron: pyrethrum and EBF at 10^−2 dilution; for response of sbt-1B neurons in AaOr31−/− mosquitoes: AaOr31 knockout, specificity control; for response of sbt-1B neuron: pyrethrum at 10^−2. On the procedure:
(§1) Single sensilla recording was conducted as described in Liu et al. J Insect Physiol 59, 1169-1177 (2013). Female mosquitoes 4 days after eclosion were anaesthetized (2-3 min on ice) and mounted on a microscope slide (76×26 mm). An antenna was fixed using a double-sided tape to a cover slip resting on a small ball of dental wax to facilitate manipulation. The cover slip was placed at an appropriate angle to the mosquito head. Once mounted, the specimen was placed under a microscope (Nikon SMA645, Japan) and the antenna viewed at a high magnification (1000×). Two tungsten microelectrodes were sharpened in 10% KNO2 at 2-10 V. The reference electrode, which was connected to ground, was inserted into the compound eye of the mosquito and the other was connected to the preamplifier (10×, Syntech, Kirchzarten, Germany) and inserted into the shaft of an olfactory sensillum to complete the electrical circuit to extracellularly record olfactory receptor neuron potentials (Den Otter et al., Journal of Insect Physiology 26, 465-472 (1980)). Controlled manipulation of the electrodes was performed using a micromanipulator (Burleigh PCS-6000, CA). The preamplifier was connected to an analog-to-digital signal converter (IDAC-4, Syntech, Germany), which in turn was connected to a computer for signal recording and visualization. The activity of co-located olfactory receptor neurons in each sensillum was assessed based on the differences in spike amplitude. The large spike amplitude was designated as cell A and the olfactory receptor neuron with the small spike amplitude was designated cell B (Ghaninia et al. Eur J Neurosci 26, 1611-1623 (2007)). Signals were recorded for 10 seconds starting 1 second before stimulation, and the action potentials were counted off-line over a 500-ms period before and after stimulation. The spontaneous firing rates observed in the preceding 500 milliseconds (ms) were subtracted from the total spike rates observed during the 500-ms stimulation, and counts were recorded in units of spikes/second.
(§2) Eighteen compounds besides pyrethrum from different chemical classes were selected for functional classification of olfactory sensilla with various morphological shapes (Extended Data FIG. 2). Each compound was diluted in dimethyl sulfoxide (DMSO) to a stock solution with a concentration of 100 μg/μl. Subsequently, a series of 10-fold dilutions were made from each of the stock solutions for each compound tested. For each dilution, a 10 μl portion was dispersed onto a filter paper strip (4×10 mm), which was then inserted into a Pasteur pipette to create the stimulus cartridge. A sample containing the solvent alone served as control. The airflow across the antennae was maintained constant at a 20 ml/second throughout the experiment. Purified and humidified air was delivered to the preparation through a glass tube (10-mm inner diameter) perforated by a small hole 10 cm away from the end of the tube, into which the tip of the Pasteur pipette could be inserted. The stimulus was delivered to the sensilla by inserting the tip of the stimulus cartridge into this hole and diverting a portion of the air stream (0.5 l/min) to flow through the stimulus cartridge for 500 ms using a stimulus controller (Syntech, Germany). The distance between the end of the glass tube and the antennae was ≤1 cm. The number of spikes/second was obtained by averaging the results for each sensillum/compound combination.
(§3) To identify which mosquito olfactory receptor neuron(s) responds to pyrethrum, single sensillum recordings (SSR) were performed of Ae. aegypti antennal olfactory sensilla in response to a panel of odorants (FIG. 2C-2L), most of which are plant-derived mosquito repellents, such as pyrethrum, (±)-citronellal, geranyl acetate and (−)-borneol. Three responsive sst sensilla were identified, sst1-3, and six responsive sbt sensilla, sbt1-6, based on their response profiles to the odorants in the panel (FIG. 2B, 2D-2L).

The subject of experiment [2] is sst-1 sensilla (sst-1A and sst-1B neurons). The experiment in a line: Single sensillum recording (SSR) of antennal sst-1 sensilla. It is filed as cell-based, Aedes aegypti. As to conditions: for response of sst-1A neuron: wild-type ROCK, pyrethrum at 10^−2; for response of sst-1A neurons: ROCK, 10^−1 dilution, FIG. 4A. On the procedure:
as §1, §2, §3

For a further experiment, the system named is AgOr31. The experiment in a line: SSR of Drosophila ab3A empty neurons expressing AgOr31. It is filed as cell-based, Anopheles gambiae. As to conditions: 10^−2 dilution. From the text:
The method of Carey et al. (Nature 464, 66-71 (2010)) was used for heterologous expression of AgORs in the ab3 empty neurons. The Gal4 line (w; Cyo/Δhalo; Or22a-Gal4) was kindly provided by John Carlson (Yale Univ.), and 50 UAS-AgOr lines were obtained from the Bloomington Drosophila stock center.
Having identified sbt-1 and sst-1 as primary olfactory receptor neurons that are responsive to pyrethrum, experiments were designed to identify the specific odorant receptors (Ors) that are involved in these responses. An indexed library of An. gambiae Ors (AgOrs) (Carey et al., Nature 464, 66-71 (2010)) was used. Each of the 50 AgOrs was expressed in the “ab3 empty neuron” system of Drosophila melanogaster, in which the endogenous odorant receptor gene, Or22a, in the ab3 sensillum was deleted (FIG. 2N-2O, FIG. 3A).
Single sensillum recordings (SSR) were then examined from the resulting chimera ab3 sensillum that expressed the individual AgOrs in the D. melanogaster antenna when these flies were exposed to the same panel of odorants used in the analysis of Ae. aegypti sensilla. […] The odorant response profile of the sbt-1A neuron matches remarkably well with that of AgOr31 (FIGS. 2C, 2O).

Setting [3] is: 10^−3 dilution, Orlando (wild-type), FIG. 4B.

For `CC(C)=CCCC(C)CC=O` (racemic) [(±)-citronellal], the “repellency in AaOr31−/− mosquitoes compared to wild-type mosquitoes” value (shortened to “repellency … compared to wild-type mosquitoes”) in the experiment on Ae. aegypti mosquitoes (10^−2 dilution, FIG. 3B) is on record as “significantly reduced”. In experiment [1], the “response of sbt-1A neurons in AaOr31−/− mosquitoes” value (shortened to “response of sbt-1A neurons”) is on record as “completely abolished” and the “response of sbt-1A neuron” value was “strong excitatory responses”. Besides, the “response of sst-1A neuron” value in experiment [2] was “activated”.

In the case of `C=CC(=C)CC/C=C(\C)CCC=C(C)C` [(E)-β-farnesene], the “activation of AgOr31” value in the experiment on AgOr31 was “activated”. Further, the repellency alone result is “did not elicit repellency” with Ae. aegypti mosquitoes (4 ppm and 10 ppm, ROCK or AaOr31−/− mosquitoes, FIG. 4H); “no repellency” in the experiment with Ae. aegypti mosquitoes (1000 ppm or lower concentrations, FIG. 4H); “did not exhibit repellency” in the experiment on Ae. aegypti mosquitoes (at 4 ppm or below). Further, the “repellency … compared to wild-type mosquitoes” value in the experiment with Ae. aegypti mosquitoes (10^−2 dilution, FIG. 3B) is recorded as “significantly reduced”. Moreover, in the experiment with Ae. aegypti mosquitoes (10^−2 dilution, ROCK, FIG. 3B), the spatial repellency result is “elicited spatial repellency”. Also, the “repellency enhancement by (E)-β-farnesene in AaOr31−/− mosquitoes” value in the experiment with Ae. aegypti mosquitoes (EBF 4 ppm with P-II 1000 ppm, FIG. 4D) is “abolished”. Moreover, the “response of sbt-1A neurons” value in experiment [1] is “completely abolished”. Further, the “response of sbt-1A neuron” value in experiment [1] is given as “activated”.

As for `CC12CCC(CC1=O)C2(C)C` (centres unmarked) [camphor], the “response of sst-1A neuron” value in experiment [2] is on record as “activated”.

Turning to `CCCCC/C=C\C/C=C\CCCCCCCC(=O)OCC` [ethyl linoleate], in the experiment with AgOr31, the “activation of AgOr31” value was “None”. Also, the “response of sbt-1A neuron” value in experiment [1] is listed as “None”.

Consider `CCCCCCCCCCCCCCCC(=O)OCC` [ethyl palmitate], for which the “activation of AgOr31” value in the experiment on AgOr31 is “None”. Also, the “response of sbt-1A neuron” value in experiment [1] is given as “None”.

On to `CC12CCC(CC1)C(C)(C)O2` [eucalyptol], for which the “response of sst-1A neuron” value in experiment [2] is listed as “activated”.

Regarding `CC(=O)OC/C=C(\C)CCC=C(C)C` [geranyl acetate], in the experiment with Ae. aegypti mosquitoes (10^−2 dilution, FIG. 3B), the “repellency … compared to wild-type mosquitoes” value is recorded as “significantly reduced”. Also, in experiment [1], the “response of sbt-1A neurons” value was “completely abolished” and the “response of sbt-1A neuron” value was “strong excitatory responses”.

Take `c1ccc2[nH]ccc2c1` [indole]: in experiment [1], the “response of sbt-1B neurons in AaOr31−/− mosquitoes” value was “remained intact” and the “response of sbt-1B neuron” value was “highly sensitive”.

As to `C=C/C=C\CC1=C(C)[C@@H](OC(=O)[C@@H]2[C@@H](/C=C(\C)C(=O)OC)C2(C)C)CC1=O` [pyrethrin II], the “repellency in orco−/− mosquitoes compared to Orlando” value in the experiment with Ae. aegypti mosquitoes (10^−3 dilution, FIG. 4B) is listed as “significantly reduced”. Besides, the spatial repellency entry in the experiment on Ae. aegypti mosquitoes (setting [3]) is “elicited spatial repellency”. In the experiment on Ae. aegypti mosquitoes (ROCK, FIG. 4D), the “effect of (E)-β-farnesene on repellency of the compound” value is reported as “synergized”. Also, the “repellency in pyrethrum/pyrethroid resistant KDR:ROCK mosquitoes compared to ROCK” value in the experiment on Ae. aegypti mosquitoes is “reduced”. Moreover, the “response of sst-1A neurons” value in experiment [2] is “activated”.

Turning to `C=C/C=C\CC1=C(C)[C@@H](OC(=O)[C@@H]2[C@@H](C=C(C)C)C2(C)C)CC1=O` [pyrethrin I], the repellency alone result with Ae. aegypti mosquitoes (1 ppm, ROCK, FIG. 4E) was “did not elicit repellency”. In addition, the “repellency in orco−/− mosquitoes compared to Orlando” value in the experiment with Ae. aegypti mosquitoes (10^−3 dilution, FIG. 4B) is reported as “significantly reduced”. The spatial repellency result with Ae. aegypti mosquitoes (setting [3]) is on record as “elicited spatial repellency”. Also, the “effect of (E)-β-farnesene on repellency of the compound” value with Ae. aegypti mosquitoes (ROCK, FIG. 4D) was “synergized”. The “repellency in pyrethrum/pyrethroid resistant KDR:ROCK mosquitoes compared to ROCK” value with Ae. aegypti mosquitoes is recorded as “reduced”. Besides, the “synergism with (E)-β-farnesene in repellency” value in the experiment with Ae. aegypti mosquitoes (pyrethrin I 1 ppm, EBF 10 ppm, ROCK, FIG. 4E) is reported as “still evident”. Moreover, the “response of sst-1A neurons” value in experiment [2] is “activated”.

With `Cc1ccccc1` [toluene], in experiment [1], the “response of sbt-1B neurons in AaOr31−/− mosquitoes” value was “remained intact” and the “response of sbt-1B neuron” value was “highly sensitive”.
